From ChEMBL document CHEMBL1201862, “PubChem BioAssay data set” (2004)
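The compound was tested at five concentrations on cells cultured in 96-well plates, with a 48-hour exposure period. GI50: concentration for 50% inhibition of growth.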 Calls of active or inactive are those of the source. Cut-off read from the data, not from the text of the source: active = GI50 up to about 1.1 µM and inactive = higher.

Experiments:
Experiment in all cases: NCI-60 cell line screen, 48 h
[1] = system: 786-0
[2] = system: A549
[3] = system: DU-145
[4] = system: HCC 2998
[5] = system: HCT-116
[6] = system: Hs-578T
[7] = system: K562
[8] = system: KM12
[9] = system: LOX IMVI
[10] = system: MOLT-4
[11] = system: NCI-H522
[12] = system: OVCAR-4
[13] = system: OVCAR-5
[14] = system: PC-3
[15] = system: SF-539
[16] = system: SK-MEL-2
[17] = system: SK-MEL-5
[18] = system: T47D
[19] = system: U-251
[20] = system: UO-31

Row | SMILES | GI50 [1] | GI50 [2] | GI50 [3] | GI50 [4] | GI50 [5] | GI50 [6] | GI50 [7] | GI50 [8] | GI50 [9] | GI50 [10] | GI50 [11] | GI50 [12] | GI50 [13] | GI50 [14] | GI50 [15] | GI50 [16] | GI50 [17] | GI50 [18] | GI50 [19] | GI50 [20]
1 | Cc1nc2c(C)ccc([N+](=O)[O-])c2c(NCCCN(C)C)c1C | > 90.8 µM (inactive) | > 47.1 µM (inactive) | > 100 µM (inactive) | 27.4 µM (inactive) | 74.6 µM (inactive) | 63 µM (inactive) | 32.3 µM (inactive) | > 100 µM (inactive) | 44.3 µM (inactive) | 28.3 µM (inactive) | 26.9 µM (inactive) | > 100 µM (inactive) | > 72.1 µM (inactive) | 11.7 µM (inactive) | > 76.9 µM (inactive) | > 44.6 µM (inactive) | 14.2 µM (inactive) | > 100 µM (inactive) | > 57.8 µM (inactive) | > 100 µM (inactive)
2 | CC(=O)C1=C(O)/C(=C\c2ccco2)OC1=O | > 10 µM (inactive) | > 10 µM (inactive) | > 10 µM (inactive) | > 10 µM (inactive) | > 10 µM (inactive) | > 10 µM (inactive) | > 10 µM (inactive) | > 10 µM (inactive) | > 10 µM (inactive) | > 10 µM (inactive) | > 10 µM (inactive) | > 10 µM (inactive) | > 10 µM (inactive) | > 10 µM (inactive) | > 10 µM (inactive) | > 10 µM (inactive) | > 10 µM (inactive) | > 10 µM (inactive) | > 10 µM (inactive) | > 10 µM (inactive)
3 | Cn1cnc(N2CCCC2)c(C#N)c1=O | > 100 µM (inactive) | > 100 µM (inactive) | > 100 µM (inactive) | > 100 µM (inactive) | > 100 µM (inactive) | > 100 µM (inactive) | > 100 µM (inactive) | > 100 µM (inactive) | > 100 µM (inactive) | > 100 µM (inactive) | > 100 µM (inactive) | > 100 µM (inactive) | > 100 µM (inactive) | > 100 µM (inactive) | > 100 µM (inactive) | > 100 µM (inactive) | > 100 µM (inactive) | > 100 µM (inactive) | > 100 µM (inactive) | > 100 µM (inactive)
4 | Nc1nc(Cl)cc(Nc2cc(Cl)cc(Cl)c2)n1 | 17.4 µM (inactive) | 24.8 µM (inactive) | 26.1 µM (inactive) | 18.7 µM (inactive) | 17.5 µM (inactive) | 16.8 µM (inactive) | 30.8 µM (inactive) | 20.9 µM (inactive) | 18.1 µM (inactive) | 22.3 µM (inactive) | 10.9 µM (inactive) | 21.7 µM (inactive) | 31.9 µM (inactive) | 19.7 µM (inactive) | 17 µM (inactive) | 18.7 µM (inactive) | 19.8 µM (inactive) | 37 µM (inactive) | 21.2 µM (inactive) | 19.6 µM (inactive)
5 | CC(C)=CCC[C@@H](C)C1=C(Nc2ccccc2Cl)C(=O)C(C)=C(O)C1=O | 1.81 µM (inactive) | 3.24 µM (inactive) | 6.64 µM (inactive) | 6.18 µM (inactive) | 3.91 µM (inactive) | 3.42 µM (inactive) | 17.1 µM (inactive) | 3.08 µM (inactive) | 3.26 µM (inactive) | 2.04 µM (inactive) | 2.57 µM (inactive) | 5.53 µM (inactive) | 14.6 µM (inactive) | 4.85 µM (inactive) | 3.79 µM (inactive) | 3.66 µM (inactive) | 1.95 µM (inactive) | 5.62 µM (inactive) | 4.27 µM (inactive) | 2.89 µM (inactive)
6 | CC(=N\N)/C(C)=N/N=C(C)/C(C)=N/N=C(C)/C(C)=N/N | > 100 µM (inactive) | > 100 µM (inactive) | > 100 µM (inactive) | > 100 µM (inactive) | > 100 µM (inactive) | > 100 µM (inactive) | > 100 µM (inactive) | > 100 µM (inactive) | > 100 µM (inactive) | 0.1 µM (active) | > 100 µM (inactive) | > 100 µM (inactive) | > 100 µM (inactive) | > 100 µM (inactive) | > 100 µM (inactive) | > 100 µM (inactive) | > 100 µM (inactive) | > 100 µM (inactive) | > 100 µM (inactive) | > 100 µM (inactive)
7 | C=CCC(CNC(=O)OCc1ccccc1)O[Si](C)(C)C(C)(C)C (stereo not given) | 29.4 µM (inactive) | 30.1 µM (inactive) | 36.5 µM (inactive) | 39.5 µM (inactive) | 20.8 µM (inactive) | 45.2 µM (inactive) | 23.6 µM (inactive) | 34 µM (inactive) | 23.4 µM (inactive) | 19.6 µM (inactive) | 24.9 µM (inactive) | 46.7 µM (inactive) | 26.3 µM (inactive) | 30.3 µM (inactive) | 28.5 µM (inactive) | 16.6 µM (inactive) | 16.6 µM (inactive) | 22.9 µM (inactive) | 25.6 µM (inactive) | 22.2 µM (inactive)
8 | CSc1nc(=S)[nH]c2[nH]nc(C)c12 | > 100 µM (inactive) | > 100 µM (inactive) | > 100 µM (inactive) | > 100 µM (inactive) | > 100 µM (inactive) | > 100 µM (inactive) | > 100 µM (inactive) | > 100 µM (inactive) | > 100 µM (inactive) | > 100 µM (inactive) | 55 µM (inactive) | > 100 µM (inactive) | > 100 µM (inactive) | > 100 µM (inactive) | > 100 µM (inactive) | > 100 µM (inactive) | > 100 µM (inactive) | > 100 µM (inactive) | > 100 µM (inactive) | > 100 µM (inactive)
